Experiment [1] concerns the target T1, human TRPV1 (Homo sapiens, UniProt Q8NER1).
T1 construct: expressed in transfected cells
Kind of experiment: Acid Activation Assay (pH 5.0, FLIPR intracellular Ca2+, recombinant HEK293 cells). The class given is cell-based. Conditions: percentage of maximal pH 5.0-induced response remaining; HEK293 hTRPV1; max concentration 37.5 μM. The procedure, abridged: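 HEK293 cells stably expressing recombinant hTRPV1 were loaded with calcium dye for 90-120 min at 25° C and pre-treated with compound for 3 min before a pH 5.0 (DPBS/MES) challenge. Peak FLIPR fluorescence over baseline is given as percentage of the maximal pH 5.0-induced response.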

The target of experiment [2] is T1, human TRPV1. As to the kind of experiment: Capsaicin Activation Assay (FLIPR intracellular Ca2+, recombinant HEK293 cells). The class given is cell-based. To be noted: recombinant HEK293 cells expressing hTRPV1; 50 nM capsaicin; read-out: human TRPV1 capsaicin IC50.

T1 sequence (Q8NER1 whole entry): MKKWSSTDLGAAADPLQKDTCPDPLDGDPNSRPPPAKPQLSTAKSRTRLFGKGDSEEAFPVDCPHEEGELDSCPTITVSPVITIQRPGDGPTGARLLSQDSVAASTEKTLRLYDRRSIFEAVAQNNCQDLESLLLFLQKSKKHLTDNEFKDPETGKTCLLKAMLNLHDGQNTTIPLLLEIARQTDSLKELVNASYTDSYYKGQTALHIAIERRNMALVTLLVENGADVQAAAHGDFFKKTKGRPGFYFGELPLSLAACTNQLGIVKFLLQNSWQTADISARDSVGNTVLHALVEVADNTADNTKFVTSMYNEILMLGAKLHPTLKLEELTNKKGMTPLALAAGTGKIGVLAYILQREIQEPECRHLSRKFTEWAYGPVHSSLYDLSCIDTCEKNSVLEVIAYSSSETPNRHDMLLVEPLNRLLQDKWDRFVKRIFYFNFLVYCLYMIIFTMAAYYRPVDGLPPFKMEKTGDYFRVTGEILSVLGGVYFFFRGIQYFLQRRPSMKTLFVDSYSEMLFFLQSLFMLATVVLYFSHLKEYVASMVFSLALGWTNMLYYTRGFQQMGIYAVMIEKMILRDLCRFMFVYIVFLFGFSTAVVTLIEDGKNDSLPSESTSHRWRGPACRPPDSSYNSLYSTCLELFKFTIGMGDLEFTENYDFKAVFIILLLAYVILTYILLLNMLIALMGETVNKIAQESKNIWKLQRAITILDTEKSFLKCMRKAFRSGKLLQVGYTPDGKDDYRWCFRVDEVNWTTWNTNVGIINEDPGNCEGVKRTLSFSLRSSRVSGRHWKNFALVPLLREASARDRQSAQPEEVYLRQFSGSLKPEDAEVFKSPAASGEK

As for `O=C(Nc1cccc2c1C[C@H](O)C2)N[C@@H]1CCc2cc(OC(F)(F)F)ccc21` [Example 106, 1-[(2R)-2-hydroxy-2,3-dihydro-1H-inden-4-yl]-3-[(1R)-5-(trifluoromethoxy)-2,3-dihydro-1H-inden-1-yl]urea], the “human TRPV1 H+ (max % remain)” value at human TRPV1 [1] came to 26%. Also, the IC50 at human TRPV1 [2] amounted to 56 nM.
Take `O=C(Nc1ccc(F)c2c1C[C@H](O)C2)N[C@@H]1CC(CF)(CF)Oc2ccc(F)cc21` [Example 141, 1-[(4R)-6-fluoro-2,2-bis(fluoromethyl)-3,4-dihydro-2H-chromen-4-yl]-3-[(2S)-7-fluoro-2-hydroxy-2,3-dihydro-1H-inden-4-yl]urea]: the “human TRPV1 H+ (max % remain)” value on human TRPV1 [1] is listed as 5%. Further, at human TRPV1 [2], the IC50 was found to be 3900 nM.
Take `CC1(C)C[C@@H](NC(=O)Nc2cccc3c2C[C@H](O)C3)c2cccc(OC(F)(F)F)c2O1` [Example 19, 1-[(4R)-2,2-dimethyl-8-(trifluoromethoxy)-3,4-dihydro-2H-chromen-4-yl]-3-[(2R)-2-hydroxy-2,3-dihydro-1H-inden-4-yl]urea]: at human TRPV1 [1], the “human TRPV1 H+ (max % remain)” value amounted to 71%. Moreover, the IC50 on human TRPV1 [2] is 14 nM.
Regarding `O=C(Nc1cccc2c1C[C@H](O)C2)N[C@@H]1CCOc2c(OC(F)(F)F)cccc21` [Example 6, 1-[(2R)-2-hydroxy-2,3-dihydro-1H-inden-4-yl]-3-[(4R)-8-(trifluoromethoxy)-3,4-dihydro-2H-chromen-4-yl]urea], the “human TRPV1 H+ (max % remain)” value at human TRPV1 [1] was 67%. The IC50 at human TRPV1 [2] is 16 nM.
The like results for `O=C(Nc1ccc(F)c2c1C[C@H](O)C2)N[C@@H]1CC2(CCC2)Oc2ccc(F)cc21` [Example 143, 1-[(4R)-6-fluoro-3,4-dihydrospiro[chromene-2,1′-cyclobutan]-4-yl]-3-[(2S)-7-fluoro-2-hydroxy-2,3-dihydro-1H-inden-4-yl]urea] were, in that order, 3% and 1100 nM.
Turning to `O=C(Nc1cccc2c1C[C@H](O)C2)N[C@@H]1CC(CF)(CF)Oc2c(F)cc(F)cc21` [Example 1, 1-[(4R)-6,8-difluoro-2,2-bis(fluoromethyl)-3,4-dihydro-2H-chromen-4-yl]-3-[(2R)-2-hydroxy-2,3-dihydro-1H-inden-4-yl]urea], on human TRPV1 [1], the “human TRPV1 H+ (max % remain)” value is recorded as 61%. Moreover, at human TRPV1 [2], the IC50 came to 300 nM.
For the compound `CC1(C)C[C@@H](NC(=O)Nc2cccc3c2C[C@@H](O)C3)c2ccc(F)c(F)c2O1` [Example 38, 1-[(4R)-7,8-difluoro-2,2-dimethyl-3,4-dihydro-2H-chromen-4-yl]-3-[(2S)-2-hydroxy-2,3-dihydro-1H-inden-4-yl]urea], on human TRPV1 [1], the “human TRPV1 H+ (max % remain)” value came to 43%. In addition, the IC50 at human TRPV1 [2] was 37 nM.
Consider `CC1(C)C[C@@H](NC(=O)Nc2ccc(F)c3c2C[C@H](O)C3)c2ccc(F)c(Cl)c2O1` [Example 147, 1-[(4R)-8-chloro-7-fluoro-2,2-dimethyl-3,4-dihydro-2H-chromen-4-yl]-3-[(2S)-7-fluoro-2-hydroxy-2,3-dihydro-1H-inden-4-yl]urea], for which the “human TRPV1 H+ (max % remain)” value on human TRPV1 [1] turned out to be 2%. Besides, at human TRPV1 [2], the IC50 stood at 440 nM.
For the compound `C[C@]1(CF)C[C@@H](NC(=O)Nc2c(F)ccc3c2CC(O)C3)c2ccc(Cl)cc2O1` (stereo partly drawn) [Example 25, 1-[(2R,4R)-7-chloro-2-(fluoromethyl)-2-methyl-3,4-dihydro-2H-chromen-4-yl]-3-(5-fluoro-2-hydroxy-2,3-dihydro-1H-inden-4-yl)urea], the “human TRPV1 H+ (max % remain)” value on human TRPV1 [1] came out at 30%. Also, the IC50 at human TRPV1 [2] came out at 41 nM.
The like results for `COc1ccc(C2CC(NC(=O)Nc3cccc4c3CC(O)C4)c3ccccc3O2)cc1OC` (stereo not shown) [Example 113, 1-[2-(3,4-dimethoxyphenyl)-3,4-dihydro-2H-chromen-4-yl]-3-(2-hydroxy-2,3-dihydro-1H-inden-4-yl)urea] were, in that order, 74% and more than 38000 nM.
Turning to `O=C(Nc1cccc2c1CC(O)C2)NC1CC(c2ccc(F)cc2)Oc2ccccc21` (stereo not shown) [Example 119, 1-[2-(4-fluorophenyl)-3,4-dihydro-2H-chromen-4-yl]-3-(2-hydroxy-2,3-dihydro-1H-inden-4-yl)urea], the “human TRPV1 H+ (max % remain)” value at human TRPV1 [1] is listed as 72%. The IC50 on human TRPV1 [2] was 430 nM.
As for `O=C(NCC1COc2ccc(F)cc2C1)Nc1cccc2c1C[C@H](O)C2` (stereo partly drawn) [Example 28, 1-[(6-fluoro-3,4-dihydro-2H-chromen-3-yl)methyl]-3-[(2R)-2-hydroxy-2,3-dihydro-1H-inden-4-yl]urea], at human TRPV1 [1], the “human TRPV1 H+ (max % remain)” value came out at 58%. Also, the IC50 at human TRPV1 [2] was found to be 290 nM.
Turning to `O=C(Nc1c(F)ccc2c1C[C@H](O)C2)N[C@@H]1CC(CF)(CF)Oc2cc(Cl)ccc21` [Example 175, 1-[(4R)-7-chloro-2,2-bis(fluoromethyl)-3,4-dihydro-2H-chromen-4-yl]-3-[(2R)-5-fluoro-2-hydroxy-2,3-dihydro-1H-inden-4-yl]urea], the “human TRPV1 H+ (max % remain)” value on human TRPV1 [1] came to 37%. Besides, on human TRPV1 [2], the IC50 amounted to 470 nM.
Consider `CCC1(CC)C[C@@H](NC(=O)Nc2cccc3c2C[C@H](O)C3)c2ccc(Cl)c(Cl)c2O1` [Example 55, 1-[(4R)-7,8-dichloro-2,2-diethyl-3,4-dihydro-2H-chromen-4-yl]-3-[(2R)-2-hydroxy-2,3-dihydro-1H-inden-4-yl]urea], for which, at human TRPV1 [1], the “human TRPV1 H+ (max % remain)” value amounted to 72%. Further, the IC50 on human TRPV1 [2] was found to be 240 nM.
With `O=C(Nc1cccc2c1C[C@H](O)C2)N[C@@H]1CC(CF)(CF)Oc2cc(OC(F)(F)F)ccc21` [Example 31, 1-[(4R)-2,2-bis(fluoromethyl)-7-(trifluoromethoxy)-3,4-dihydro-2H-chromen-4-yl]-3-[(2R)-2-hydroxy-2,3-dihydro-1H-inden-4-yl]urea], the “human TRPV1 H+ (max % remain)” value at human TRPV1 [1] is recorded as 30%. Further, the IC50 at human TRPV1 [2] amounted to 41 nM.
In the case of `C[C@]1(CF)C[C@@H](NC(=O)Nc2ccc3c(c2)C(O)C3)c2ccc(Cl)cc2O1` (stereo partly drawn) [Example 131, 1-[(2R,4R)-7-chloro-2-(fluoromethyl)-2-methyl-3,4-dihydro-2H-chromen-4-yl]-3-(8-hydroxybicyclo[4.2.0]octa-1,3,5-trien-3-yl)urea], on human TRPV1 [1], the “human TRPV1 H+ (max % remain)” value is listed as 92%. Further, the IC50 on human TRPV1 [2] is 1000 nM.
The like results for `O=C(Nc1c(F)ccc2c1C[C@@H](O)C2)N[C@@H]1CC(CF)(CF)Oc2cc(C(F)(F)F)ccc21` [Example 95, 1-[(4R)-2,2-bis(fluoromethyl)-7-(trifluoromethyl)-3,4-dihydro-2H-chromen-4-yl]-3-[(2S)-5-fluoro-2-hydroxy-2,3-dihydro-1H-inden-4-yl]urea] were, in that order, 46% and 170 nM.
In the case of `O=C(Nc1cccc2c1C[C@@H](O)C2)N[C@@H]1CC(CF)(CF)Oc2ccccc21` [Example 86, 1-[(4R)-2,2-bis(fluoromethyl)-3,4-dihydro-2H-chromen-4-yl]-3-[(2S)-2-hydroxy-2,3-dihydro-1H-inden-4-yl]urea], the “human TRPV1 H+ (max % remain)” value on human TRPV1 [1] was found to be 46%. Further, at human TRPV1 [2], the IC50 worked out at 1600 nM.
As to `O=C(Nc1cccc2c1C[C@H](O)C2)N[C@@H]1CCc2c1cccc2C(F)(F)F` [Example 41, 1-[(2R)-2-hydroxy-2,3-dihydro-1H-inden-4-yl]-3-[(1R)-4-(trifluoromethyl)-2,3-dihydro-1H-inden-1-yl]urea], the “human TRPV1 H+ (max % remain)” value on human TRPV1 [1] came to 56%. The IC50 at human TRPV1 [2] was 13 nM.
For the compound `O=C(Nc1cccc2c1CC(O)C2)NC1c2ccccc2CC1Cc1ccccc1` (stereo not shown) [Example 125, 1-(2-benzyl-2,3-dihydro-1H-inden-1-yl)-3-(2-hydroxy-2,3-dihydro-1H-inden-4-yl)urea], the “human TRPV1 H+ (max % remain)” value at human TRPV1 [1] came out at 83%. Also, the IC50 on human TRPV1 [2] worked out at 3500 nM.

Broadly, the IC50 is the concentration that inhibits the measured activity by half.

These data come from US8859584B2, “TRPV1 antagonists” (AbbVie Inc., priority 2011, dated 2014).
